Laboratory results: PubChem BioAssay AID1963831 (Molecular Pharmacology Branch, DTP, NCI, 2024)

Test system: 889142-216-R-J1-PDC complex spheroid viability
Experiment: Anticancer human tumor 889142-216-R-J1-PDC patient-derived bladder carcinoma cell line growth inhibition [POLQ]
Settings: for IC50: curve of first compound; for viability, T/C: stronger effect = lower value
Protocol: Multicellular complex tumor spheroid response to Polymerase (POL) inhibitors (novobiocin, ART-558, RP6685) in combination with a variety of drugs and investigational agents in selected tumor cell lines
The POL inhibitors (novobiocin, ART-558, and RP6685) were evaluated both individually and in combination with standard of care and investigational anticancer small molecules within a complex spheroid model of solid tumors. . Complex spheroids include a stromal component modeled by human endothelial cells (HUVEC) and fibroblasts modeled by human mesenchymal stem cells (MSCs). The concentration ranges selected for each drug and investigational agent were based upon clinically achievable concentrations if the clinical Cmax of the agent was known.
Compounds. The drugs and investigational agents: novobiocin (NSC847541), ART-558 (NSC835418), RP-6685 (NSC848927), peposertib (NSC802822), ceralasertib (NSC780249), elimusertib (NSC800525), camonsertib (NSC841442), AZD-1390 (NSC803789), olaparib (NSC753686), talazoparib (NSC767125), rucaparib (NSC756644), sotorasib (NSC818433), MRTX-1133 (NSC836407), SN-38 (NSC673596), topotecan (NSC609699), epotoside (NSC141540), doxorubicin (NSC123127), gemcitabine (NSC613327), 5-fluorouracil (NSC19893), paclitaxel (NSC125973), vemurafenib (NSC761431), MSA-2 (NSC828583), SN-011 (NSC837082), adavosertib (NSC754352), prexasertib (NSC758257), carboplatin (NSC241240) and oxaliplatin (NSC266046), were obtained from the National Cancer Institute (NCI) Developmental Therapeutics Program Chemical Repository (21). The FDA-approved anticancer drug set is available from the Developmental Therapeutics Program at https://dtp.cancer.gov/organization/dscb/obtaining/. […] The stock solutions were prepared in dimethyl sulfoxide (DMSO, Sigma-Aldrich, St. Louis, MO, cat. D2650), except for the platinum compounds which were prepared in saline (Quality Biological, Gaithersburg, MD, cat. 114-055-101), at 800-fold the tested concentration and stored at -70 degrees C prior to their use. All drugs and investigational agents were tested over a range starting from a high concentration at or near the clinical Cmax and decreasing in half-log increments. If the clinical Cmax for an agent had not been determined, the highest concentration tested was 10 microM, except for SN-38, which was tested at a high concentration of 1 microM.
Cell Culture. All cells were maintained in an incubator at 37 degrees C and 5% CO2 with 95% humidity. The PDC lines were cultured according to standard operating procedures established by the NCI PDMR (https://pdmr.cancer.gov). Table 3 of the manuscript, lists the cell lines along with the number of the three cell types plated to form the mct-spheroids and media for tumor cell growth. After thawing, all PDC lines, except 997537-175-T-J1-PDC and 415267-285-R-J2-PDC, were cultured in Matrigel-coated flasks prepared with a working solution of 1X Ham's F-12 nutrient mix, without supplementation (Thermo Fisher Scientific, cat. 11765054), 100 U/mL penicillin-streptomycin (Thermo Fisher Scientific, cat. 15140122), and 2.5% Matrigel (Corning Inc., Corning, NY, cat. 354248) for the first three passages. The two PDC lines 997537-175-T-J1-PDC and 415267-285-R-J2-PDC were cultured on uncoated flasks. The 857933-349-R-J2-PDC line was cultured in 6C/Colon 1B media containing advanced DMEM/F-12 (Thermo Fisher Scientific, cat. 12634028), 10 mM HEPES (Thermo Fisher Scientific, cat. 15630080), 1X GlutaMAX supplement (Thermo Fisher Scientific, cat. 35050061), 0.1 mg/mL primocin (InvivoGen, San Diego, CA, cat. ant-pm-2), 10% defined fetal bovine serum, heat inactivated (HyClone Laboratories Inc., Logan, UT, cat. SH30070.03HI), 50% L-WRN conditioned media (ATCC, cat. CRL-3276), 1.25 mM N-Acetyl-L-cysteine (Sigma-Aldrich, cat. A9165), 10 mM nicotinamide (Sigma-Aldrich, cat. N0636), 1X B-27 supplement (Thermo Fisher Scientific, cat. 17504044), 1X N-2 supplement (Thermo Fisher Scientific, cat. […]

[1] = second compound 0.0316 µM, first compound 0.0316 µM
[2] = second compound 0.0316 µM, first compound 0.1 µM
[3] = second compound 0.0316 µM, first compound 0.316 µM
[4] = second compound 0.0316 µM, first compound 1 µM
[5] = second compound 0.0316 µM, first compound 3.16 µM
[6] = second compound 0.0316 µM, first compound 10 µM
[7] = second compound 0.1 µM, first compound 0.0316 µM
[8] = second compound 0.1 µM, first compound 0.1 µM
[9] = second compound 0.1 µM, first compound 0.316 µM
[10] = second compound 0.1 µM, first compound 1 µM
[11] = second compound 0.1 µM, first compound 3.16 µM
[12] = second compound 0.1 µM, first compound 10 µM
[13] = second compound 0.316 µM, first compound 0.0316 µM
[14] = second compound 0.316 µM, first compound 0.1 µM
[15] = second compound 0.316 µM, first compound 0.316 µM
[16] = second compound 0.316 µM, first compound 1 µM
[17] = second compound 0.316 µM, first compound 3.16 µM
[18] = second compound 0.316 µM, first compound 10 µM
[19] = second compound 1 µM, first compound 0.0316 µM
[20] = second compound 1 µM, first compound 0.1 µM
[21] = second compound 1 µM, first compound 0.316 µM
[22] = second compound 1 µM, first compound 1 µM
[23] = second compound 1 µM, first compound 3.16 µM
[24] = second compound 1 µM, first compound 10 µM
[25] = second compound 3.16 µM, first compound 0.0316 µM
[26] = second compound 3.16 µM, first compound 0.1 µM
[27] = second compound 3.16 µM, first compound 0.316 µM
[28] = second compound 3.16 µM, first compound 1 µM
[29] = second compound 3.16 µM, first compound 3.16 µM
[30] = second compound 3.16 µM, first compound 10 µM
[31] = second compound 10 µM, first compound 0.0316 µM
[32] = second compound 10 µM, first compound 0.1 µM
[33] = second compound 10 µM, first compound 0.316 µM
[34] = second compound 10 µM, first compound 1 µM
[35] = second compound 10 µM, first compound 3.16 µM
[36] = second compound 10 µM, first compound 10 µM
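Note: spheroids exposed to compounds for seven days.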
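Throughout, for viability, T/C: 100% = DMSO vehicle control viability.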

CC1COCCN1c1cc(C2(O)CC3CCC(C2)O3)c2cnn(-c3ccn[nH]3)c2n1 (centres undefined) + Cc1cccc(N(C)C(=O)C2C(O)CCN2c2nc(C)cc(C(F)(F)F)c2C#N)c1
IC50 (second compound 0.0316 µM): 133 nM | IC50 (second compound 0.1 µM): 71 nM | IC50 (second compound 0.316 µM): 133 nM | IC50 (second compound 1 µM): 102 nM | IC50 (second compound 3.16 µM): 98.8 nM | IC50 (second compound 10 µM): 56.5 nM | viability, T/C [1]: 66.5% | viability, T/C [2]: 48.2% | viability, T/C [3]: 42.3% | viability, T/C [4]: 34.2% | viability, T/C [5]: 26.1% | viability, T/C [6]: 14.6% | viability, T/C [7]: 56.7% | viability, T/C [8]: 48.1% | viability, T/C [9]: 36.1% | viability, T/C [10]: 29% | viability, T/C [11]: 23.8% | viability, T/C [12]: 15.2% | viability, T/C [13]: 66.8% | viability, T/C [14]: 49.5% | viability, T/C [15]: 39.8% | viability, T/C [16]: 34.5% | viability, T/C [17]: 25.9% | viability, T/C [18]: 12.4% | viability, T/C [19]: 62.7% | viability, T/C [20]: 48.4% | viability, T/C [21]: 38.9% | viability, T/C [22]: 31.2% | viability, T/C [23]: 22.6% | viability, T/C [24]: 12.4% | viability, T/C [25]: 61.5% | viability, T/C [26]: 47.9% | viability, T/C [27]: 40% | viability, T/C [28]: 30.6% | viability, T/C [29]: 26.4% | viability, T/C [30]: 13.7% | viability, T/C [31]: 55.9% | viability, T/C [32]: 43.6% | viability, T/C [33]: 37.6% | viability, T/C [34]: 29.5% | viability, T/C [35]: 29.9% | viability, T/C [36]: 13.3%

C#Cc1c(F)ccc2cc(O)cc(-c3ncc4c(N5CC6CCC(C5)N6)nc(OCC56CCCN5CC(F)C6)nc4c3F)c12 (centres undefined) + Cc1cccc(N(C)C(=O)C2C(O)CCN2c2nc(C)cc(C(F)(F)F)c2C#N)c1
IC50 (second compound 0.0316 µM): 6080 nM | IC50 (second compound 0.1 µM): 5010 nM | IC50 (second compound 0.316 µM): 5260 nM | IC50 (second compound 1 µM): 7760 nM | IC50 (second compound 3.16 µM): 4970 nM | IC50 (second compound 10 µM): 5010 nM | viability, T/C [1]: 106% | viability, T/C [2]: 87.8% | viability, T/C [3]: 82.6% | viability, T/C [4]: 103% | viability, T/C [5]: 74.8% | viability, T/C [6]: 31.1% | viability, T/C [7]: 104% | viability, T/C [8]: 100% | viability, T/C [9]: 78.3% | viability, T/C [10]: 97.8% | viability, T/C [11]: 62% | viability, T/C [12]: 31.9% | viability, T/C [13]: 90.2% | viability, T/C [14]: 81.3% | viability, T/C [15]: 66.4% | viability, T/C [16]: 93.7% | viability, T/C [17]: 60.8% | viability, T/C [18]: 36.3% | viability, T/C [19]: 88.6% | viability, T/C [20]: 69.1% | viability, T/C [21]: 94% | viability, T/C [22]: 71.2% | viability, T/C [23]: 108% | viability, T/C [24]: 39.7% | viability, T/C [25]: 98.2% | viability, T/C [26]: 85.2% | viability, T/C [27]: 64.8% | viability, T/C [28]: 74% | viability, T/C [29]: 72.5% | viability, T/C [30]: 30.5% | viability, T/C [31]: 79.3% | viability, T/C [32]: 71.4% | viability, T/C [33]: 65.8% | viability, T/C [34]: 69.7% | viability, T/C [35]: 73% | viability, T/C [36]: 17.2%
